Tests used:
[1] = tested on: human mononuclear cells; assay: Suppression by nigerose of the DEX-induced decrease in growth of ConA- or PHA-stimulated human mononuclear cells (WST-1 absorbance); type: cell-based; settings: for Absorbance (at 450 nm to 630 nm): DEX 10 nM, 24 h
Description: After a blood sample obtained from an adult was diluted two-fold with PBS, a Ficoll-Paque Plus solution (manufactured by Amersham Corporation) was added slowly to make double layers (blood diluted two-fold with PBS Ficoll-Paque Plus solution=4:3), which were centrifuged at the conditions of 400×g, 20° C. and 40 minutes. A mononuclear cell fraction present in the middle layer was recovered, and this mononuclear cell fraction washed twice with a 10-fold volume of PBS. The obtained mononuclear cells were suspended in an RPMI 1640 culture medium (manufactured by GIBCO BRL Corporation) to obtain a suspension of peripheral blood mononuclear cells. The number of cells in the suspension of peripheral blood mononuclear cells was measured with an automatic blood cell counter (manufactured by Sysmex Co., Ltd., Type CDA-500), and the mononuclear cells were suspended in RPMI 1640 culture medium so as to make the number of cells at a concentration of 2.0×10^6 cells/mL. This suspension was inoculated at 50 μL per one well on a 96-well tissue culture plate. To the inoculated suspension was added a solution of ConA or PHA in the RPMI 1640 culture medium in 50 μL per one well so as to make a final concentration of 2.0 μg/mL or 5.0 μg/mL, respectively. […] The mononuclear cells were incubated at 37° C. for 24 hours in a 5% CO2 incubator. At 4 hours before completion of the incubation, a solution of WST-1 (manufactured by Dojindo Laboratories Inc.), dissolved in 0.4 mM 1-methoxy PMS (manufactured by Dojindo Laboratories Inc.) to make a concentration of 10 mM, was added in 10 μL per one well, and the absorbance at a measurement wavelength of 450 nm and a reference wavelength of 630 nm was measured at the time of completion of the incubation.
WST-1, when taken into living cells, is reduced by a intracellular mitochondrial dehydrogenase to produce water-soluble formazan. Because the amount of the thus-produced formazan is proportional to the number of the living cells, the measurement of the absorbance of formazan can be made as an index of the cell growth.

[2] = tested on: human mononuclear cells; assay: IFN-γ production by ConA- or PHA-stimulated mononuclear cells with DEX (ELISA); type: cell-based; settings: DEX 10 nM, 24 h
Description: (a) In a manner similar to that in Example 1, mononuclear cells were prepared from blood of an adult, and the cultivation was initiated at a concentration of 5.0×10^5 mononuclear cells/mL. In a manner similar to that in Example 1, ConA or PHA as a cell stimulatory factor was added to the culture in 50 μL per one well so as to make a final concentration of 2.0 μg/mL or 5.0 μg/mL, respectively, thereby inducing cytokine production. […] After completion of the incubation, the amount of IFN-γ in the culture supernatant was measured by the ELISA.
The determination by the ELISA is shown in the following.
(§1) A 2 μg/mL solution of a mouse anti-human IFN-γ antibody (manufactured by Endogen Inc.) prepared in a borate buffer solution was added in 50 μL per one well on a 96-well ELISA plate, and the plate was allowed to stand at 4° C. for a day to adhere the mouse anti-human IFN-γ antibody to each well. The above-mentioned culture supernatant was added in 50 μL per one well on the ELISA plate adhering the mouse anti-human IFN-γ antibody, and the plate was allowed to stand at room temperature for 90 minutes, thereby binding the IFN-γ in the culture supernatant to the mouse anti-human IFN-γ antibody adhered on the plate. After washing the plate, a 0.5 μg/mL solution of a biotin-labeled mouse anti-human IFN-γ antibody (manufactured by Endogen Inc.) prepared in a borate buffer solution was added thereto in 100 μL per one well to bind to the IFN-γ bound with the mouse anti-human IFN-γ antibody adhered on the plate. After washing out an unbound biotin-labeled mouse anti-human IFN-γ antibody, a solution of Avidin-HRP (manufactured by BD PharMingen Inc.) diluted 1000-fold in a borate buffer solution was added thereto in 100 μL per one well to bind to the biotin-labeled mouse anti-human IFN-γ antibody bound with the IFN-γ. After washing out an excess of Avidin-HRP, a phosphate buffer solution containing 0.006 V/V % of hydrogen peroxide and 0.1 W/V % of orthophenylenediamine was added thereto in 100 μL per one well to allow to react at room temperature for 15 minutes, and then the reaction was stopped by addition of 1.5 N sulfuric acid. The absorbance at a measurement wavelength of 492 nm and a reference wavelength of 630 nm was measured, and the concentration of the IFN-γ in the culture supernatant was obtained from a calibration curve prepared with a recombinant IFN-γ.

[3] = tested on: human mononuclear cells; assay: IL-12 and IFN-γ production by mononuclear cells stimulated with heat-killed Lactobacillus plantarum L137, with DEX (ELISA); type: cell-based; settings: for IFN-γ / IL-12: DEX 10 nM, Lactobacillus plantarum L137 1.0 μg/mL, 24 h
Description: as §1
To the culture was added a cell stimulatory factor, which was heated dead body cells of Lactobacillus plantarum L137, so as to make a final concentration of […]. […] After completion of the incubation, the amounts of IL-12 and IFN-γ in the culture supernatant were measured by the ELISA.

[4] = tested on: BALB/c mice; assay: Thymic and splenic atrophy due to DEX in mice; type: in vivo; settings: control group (commercial feed), DEX 200 μg/mouse i.p., 24 h, female BALB/c mice
Description: Female BALB/c mice (8 weeks old) were divided into a group fed with a commercially available feed (control group) and a group fed with a commercially available feed mixed with a nigerooligosaccharide liquid sugar (Nigero S: content of nigerooligosaccharide: 30.8% by weight; manufactured by Takeda Food Products, Ltd.) at a concentration of 5% by weight (nigerooligosaccharide group). […] After 24 hours of the administration, the thymus and spleen of each mouse were excised, and the weights of the excised thymus and spleen were measured.

[5] = tested on: spleen cells of BALB/c mice; assay: Final test: cytokine production of spleen cells from DEX-administered mice given nigerooligosaccharide in drinking water (ELISA); type: in vivo; settings: DEX 60 μg/mouse i.p., ion-exchanged water as drinking water
Description: The prepared spleen cells were suspended in an RPMI 1640 culture medium so as to make a concentration of 5.0×10^6 cells/mL. This suspension was inoculated in 100 μL per one well on a 96-well tissue culture plate, and further a solution of a cell stimulatory factor, (1) PHA or (2) LPS, dissolved in the RPMI 1640 culture medium so as to make a final concentration of 12.5 μg/mL or 20 μg/mL, respectively, was added in 100 μL per one well. The spleen cells were cultivated at 37° C. for 24 hours in a 5% CO2 incubator, and the concentrations of cytokines in the culture supernatant, IL-4 and IFN-γ for the foregoing (1) or IL-10 and TNF-α for the foregoing (2), were measured by the ELISA. The amount of IFN-γ was measured on the basis of the ELISA described in Example 2. The amounts of IL-4, IL-10 and TNF-α were measured in a manner similar to the ELISA described in Example 2, except that the IFN-γ in the ELISA described in Example 2 was replaced by IL-4, IL-10 or TNF-α.
Next, in this test, to 14 weeks old, female BALB/c mice (6 mice per one group) was given as a drinking water ion-exchanged water or a 1 W/V % solution of a highly pure nigerooligosaccharide (19.8% by weight of nigerose, 36.5% by weight of a trisaccharide fraction mainly composed of nigerosylglucose, 40.2% by weight of a tetra- or more saccharide fraction mainly composed of nigerosylmaltose, and 3.5% by weight of glucose) in ion-exchanged water, and the mice were fed with a commercially available feed. […] After 24 hours of the administration, the spleen was excised, and spleen cells were cultivated at the same conditions as those in the preliminary test, and the concentrations of cytokines in the culture supernatant were measured.

[6] = tested on: human mononuclear cells; assay: Activated apoptosis of mononuclear cells (ssDNA Apoptosis ELISA kit); type: cell-based; settings: for Absorbance (415 nm), degree of apoptosis: 24 h
Description: In a manner similar to that in Example 1, mononuclear cells were prepared from blood of an adult, and the cultivation was initiated at a concentration of 5.0×10^5 mononuclear cells/mL in a manner similar to that in Example 1. To the culture was added ConA or a hemolytic streptococcus preparation OK-432 (picibanil, manufactured by Chugai Pharmaceutical Co., Ltd.) as a cell stimulatory factor, so as to make a final concentrations of 2.0 μg/mL or 1.0 μg/mL, respectively. At this time, nigerose was added to each of the culture groups so as to make a concentration of 1.0 μg/mL and 10 μg/mL, where a nigerose-free control group was provided to each of the culture groups. The mononuclear cells were incubated at 37° C. for 24 hours in a 5% CO2 incubator. After completion of the incubation, apoptosis cells were fixed with an ssDNA Apoptosis ELISA kit (manufactured by Chemicon International, Inc.) which could specifically detect only the apoptosis cells, treated with a DNA-denaturing agent, then stained, and the absorbance (415 nm) was measured to quantify the degree of apoptosis.

[7] = nigerose 0 μg/mL, ConA 2.0 μg/mL
[8] = nigerose 0 μg/mL, PHA 5.0 μg/mL
[9] = nigerose 1 μg/mL, ConA 2.0 μg/mL
[10] = nigerose 1 μg/mL, PHA 5.0 μg/mL
[11] = nigerose 10 μg/mL, ConA 2.0 μg/mL
[12] = nigerose 10 μg/mL, PHA 5.0 μg/mL
[13] = nigerose 100 μg/mL, ConA 2.0 μg/mL
[14] = nigerose 100 μg/mL, PHA 5.0 μg/mL

C[C@@H]1C[C@H]2[C@@H]3CCC4=CC(=O)C=C[C@]4(C)[C@@]3(F)[C@@H](O)C[C@]2(C)[C@@]1(O)C(=O)CO [DEX, Dexamethasone]
Absorbance (at 450 nm to 630 nm) [1, 7]: 0.286 ± 0.004
Absorbance (at 450 nm to 630 nm) [1, 8]: 0.299 ± 0.004
Amount of IFN-γ production [2, 7]: 0.106 ± 0.046 ng/mL
Amount of IFN-γ production [2, 8]: 0.119 ± 0.022 ng/mL
IFN-γ ([3]; nigerose 0 μg/mL): 1.748 ± 0.307 ng/mL
Weight of spleen [4]: 78.3 ± 19.3 mg
Weight of thymus [4]: 28.8 ± 10.3 mg
IL-10 concentration in the culture supernatant ([5]; LPS): 0.021 ± 0.011 ng/mL
TNF-α concentration in the culture supernatant ([5]; LPS): 0.373 ± 0.062 ng/mL
IFN-γ concentration in the culture supernatant ([5]; PHA): 0.059 ± 0.027 ng/mL
IL-4 concentration in the culture supernatant ([5]; PHA): 2.1 ± 0.8 pg/mL

OC[C@H]1O[C@H](O[C@H]2[C@H](O)[C@@H](CO)OC(O)[C@@H]2O)[C@H](O)[C@@H](O)[C@@H]1O (some centres unmarked) [Nigerose, nigerose]
decrease in the growth of mononuclear cells due to DEX ([1]; addition of nigerose, ConA or PHA stimulation): significantly suppressed concentration-dependently
Absorbance (at 450 nm to 630 nm) [1, 9]: 0.289 ± 0.004
Absorbance (at 450 nm to 630 nm) [1, 10]: 0.290 ± 0.002
Absorbance (at 450 nm to 630 nm) [1, 11]: 0.307 ± 0.003
Absorbance (at 450 nm to 630 nm) [1, 12]: 0.305 ± 0.009
Absorbance (at 450 nm to 630 nm) [1, 13]: 0.319 ± 0.004
Absorbance (at 450 nm to 630 nm) [1, 14]: 0.319 ± 0.007
Amount of IFN-γ production [2, 9]: 0.075 ± 0.070 ng/mL
Amount of IFN-γ production [2, 10]: 0.144 ± 0.022 ng/mL
Amount of IFN-γ production [2, 11]: 0.136 ± 0.095 ng/mL
Amount of IFN-γ production [2, 12]: 0.219 ± 0.095 ng/mL
Amount of IFN-γ production [2, 13]: 0.365 ± 0.053 ng/mL
Amount of IFN-γ production [2, 14]: 0.320 ± 0.038 ng/mL
decrease of IL-12 and IFN-γ due to DEX ([3]; addition of nigerose, Tables 2 and 3): significantly suppressed concentration-dependently
IFN-γ ([3]; nigerose 0.1 μg/mL): 1.895 ± 0.816 ng/mL
IL-12 ([3]; nigerose 0.1 μg/mL): 0.093 ± 0.021 ng/mL
IFN-γ ([3]; nigerose 1 μg/mL): 1.866 ± 0.890 ng/mL
IL-12 ([3]; nigerose 1 μg/mL): 0.130 ± 0.042 ng/mL
IFN-γ ([3]; nigerose 10 μg/mL): 2.677 ± 1.000 ng/mL
IL-12 ([3]; nigerose 10 μg/mL): 0.171 ± 0.016 ng/mL
Absorbance (415 nm), degree of apoptosis ([6]; nigerose 1.0 μg/mL, ConA 2.0 μg/mL): 1.631 ± 0.175
Absorbance (415 nm), degree of apoptosis ([6]; nigerose 1.0 μg/mL, OK-432 1.0 μg/mL): 1.549 ± 0.276
Absorbance (415 nm), degree of apoptosis ([6]; nigerose 1.0 μg/mL, culture solution (no cell stimulatory factor)): 1.113 ± 0.053
Absorbance (415 nm), degree of apoptosis [6, 11]: 1.372 ± 0.165
Absorbance (415 nm), degree of apoptosis ([6]; nigerose 10 μg/mL, OK-432 1.0 μg/mL): 1.767 ± 0.203
Absorbance (415 nm), degree of apoptosis ([6]; nigerose 10 μg/mL, culture solution (no cell stimulatory factor)): 1.134 ± 0.065
effect on the apoptosis ([6]; nigerose-added group): suppressive effect

— US7786093B2, “Antistress agent” (Health Wellness Foods Corporation, priority 2004, dated 2010)
